The source of these data is US12426614B2, “Lentinula edodes-derived saltiness enhancing peptide, method for preparing the same and use thereof” (Shanghai Academy of Agricultural Sciences, priority 2023, dated 2025).

One assay relates to sensory evaluation team. In words: Saltiness threshold analysis by triangle test method. It counts as in vivo. The following applies: serial 1:1 dilution from 1.0 mg/mL; for saltiness threshold: NaCl as positive control. The procedure:
The threshold analysis was conducted by triangle test method. […] A mass concentration of the penultimate solution was recorded as the salinity threshold for the synthetic peptide.

The nature of assay [1]: Electronic tongue saltiness measurement of peptide / NaCl solutions. The procedure: In order to understand the flavor characteristics of DIQPEER synthetic peptide solutions of different concentrations in NaCl solutions of different concentrations, 0.5 g/L, 1.0 g/L, 1.5 g/L, and 2.0 g/L DIQPEER synthetic peptide aqueous solutions were added into 3.5 g/L, 3.0 g/L, 2.5 g/L, and 2.0 g/L NaCl solutions, respectively, for electronic tongue measurement.
As the concentration of synthetic peptides increased, the concentration of NaCl solution decreased and the saltiness enhancing effect weakened. Without affecting the overall solution taste, DIQPEER could replace about 50% of NaCl compared to the saltiness value of 4.0 g/L NaCl solution.

Regarding `[Cl-].[Na+]` [NaCl, reference compound], the saltiness threshold with sensory evaluation team stood at 1.07 mM.
Turning to DIQPEER, the Threshold in the assay with sensory evaluation team (saltiness threshold) is given as 0.282 mmol/L. For the same compound, the saltiness threshold with sensory evaluation team turned out to be 0.282 mM. Moreover, the “saltiness intensity of peptide aqueous solutions” value in assay [1] (0.5, 1.0, 1.5 and 2.0 g/L DIQPEER, FIG. 7) is reported as “saltiness intensity increased with the increase of the concentration”. Moreover, in assay [1] (1.0 g/L synthetic peptide added to 3.0 g/L NaCl solution, FIG. 8), the “salinity of the solution (synergy with NaCl)” value was “increased significantly”. Moreover, the “saltiness enhancement (increase of saltiness value)” value in assay [1] (1.0 g/L synthetic peptide added to 3.0 g/L NaCl solution, compared with saltiness value of 4.0 g/L NaCl solution) stood at 69.59%. Besides, the “share of NaCl that can be replaced” value in assay [1] (compared to the saltiness value of 4.0 g/L NaCl solution) is reported as “about 50%”.
